We go through six compounds from patent US11890356B2 (The General Hospital Corporation, priority 2017, dated 2024).

The test system of data set [1] is acetylation state of α-Tubulin and histones (H3K9 and H4K12). Description: Acetylation level assay (Western blot) in human iPSC-derived neural progenitor cells. The format is cell-based. Particulars: ACY1215 5 μM, other compounds 10 μM; 6 h at 37° C.
Data set [2] addresses T1, HDAC6 (Rattus norvegicus (Rat), UniProt A0A8I6GM68). Description: Autoradiography competition with radiolabeled Example 2 on rat brain slices. The format is binding, Sprague-Dawley rat. Here is the method:
Sagittal slices of Sprague-Dawley rat brains were sectioned (10 μm) with a cryostat (Thermo Scientific HM550) and mounted onto ColorFrost Plus microscope slides (Fisher Scientific 12-550-18) and stored at −20° C. […] After 15 min, 50 μCi of the radiolabeled compound of Example 2 was added to each bath. After 15 minutes, all slides were washed by dipping 10× into buffer and subsequently submerged in 50 mL baths of buffer at 4° C. for 5 minutes. The slides were dried at 35° C. in a vacuum chamber. A phosphorus screen (Perkin Elmer 7001723) was exposed with the slides for 45 minutes and subsequently imaged with a Cyclone Plus Storage Phosphor (Perkin Elmer) detector. ImageJ was used to apply a Gaussian blur (3.0 radius) smoothing and a lookup table (Royal) with equivalent thresholds for brightness was applied. Raw intensity values from gray and white matter were quantified with the ImageJ measurement tool.

The target of data set [3] is T1, HDAC6. In words: PET/CT imaging in rats with radiolabeled Example 2. Type of data set: in vivo, Sprague-Dawley rats. Here is the method: 8 male Sprague-Dawley rats (Charles River Laboratories) were used for PET imaging. […] For intravenous administration, a catheter with an extension line was placed in a lateral tail vein. Each animal received a bolus injection of either vehicle (1:1:8 DMSO/Tween80/saline) or blocking agent in solution (1 mg/kg, 1 mg/mL in 1:1:8 DMSO/Tween80/saline) immediately prior to injection of the radiotracer.
After injection of a radiotracer bolus (˜700 ρCi Example 2) a 90 min dynamic PET scan was acquired in pairs for all animals. PET scans were performed on a GammaMedica Triumph PET/CT/SPECT scanner, corrected for attenuation with a μ-map derived from the corresponding CT image, which was acquired immediately following the PET scan. The dynamic PET data was binned into 38 timeframes (8×15 s, 8×1 min, 10×2 min, 12×5) and reconstructed individually via an iterative MLEM (maximum likelihood expectation maximization) algorithm in 16 iterations.
PET images were coregistered to the CT image acquired from the same animal using AMIDE Data sets were cropped and all further image analysis was conducted using PMOD 3.3 (PMOD Technologies, Zurich, Switzerland). For maximum consistency, the data were coregistered to the Schiffer Px Rat rat brain template and data was derived from a whole brain VOI (volumes of interest) for time activity curves.

The nature of a further data set: Hepatocyte stability. The settings on record: hu.
Another data set is described as follows: Microsome stability. Particulars: hu.
Data set [4] has as its target HDAC6 (Homo sapiens (Human), UniProt Q9UBN7). In words: HDAC IC50 assay by Nanosyn (Caliper microfluidics mobility shift detection). Type of data set: biochemical.

Molecules are shown by their SMILES.

T1 sequence (A0A8I6GM68 whole entry): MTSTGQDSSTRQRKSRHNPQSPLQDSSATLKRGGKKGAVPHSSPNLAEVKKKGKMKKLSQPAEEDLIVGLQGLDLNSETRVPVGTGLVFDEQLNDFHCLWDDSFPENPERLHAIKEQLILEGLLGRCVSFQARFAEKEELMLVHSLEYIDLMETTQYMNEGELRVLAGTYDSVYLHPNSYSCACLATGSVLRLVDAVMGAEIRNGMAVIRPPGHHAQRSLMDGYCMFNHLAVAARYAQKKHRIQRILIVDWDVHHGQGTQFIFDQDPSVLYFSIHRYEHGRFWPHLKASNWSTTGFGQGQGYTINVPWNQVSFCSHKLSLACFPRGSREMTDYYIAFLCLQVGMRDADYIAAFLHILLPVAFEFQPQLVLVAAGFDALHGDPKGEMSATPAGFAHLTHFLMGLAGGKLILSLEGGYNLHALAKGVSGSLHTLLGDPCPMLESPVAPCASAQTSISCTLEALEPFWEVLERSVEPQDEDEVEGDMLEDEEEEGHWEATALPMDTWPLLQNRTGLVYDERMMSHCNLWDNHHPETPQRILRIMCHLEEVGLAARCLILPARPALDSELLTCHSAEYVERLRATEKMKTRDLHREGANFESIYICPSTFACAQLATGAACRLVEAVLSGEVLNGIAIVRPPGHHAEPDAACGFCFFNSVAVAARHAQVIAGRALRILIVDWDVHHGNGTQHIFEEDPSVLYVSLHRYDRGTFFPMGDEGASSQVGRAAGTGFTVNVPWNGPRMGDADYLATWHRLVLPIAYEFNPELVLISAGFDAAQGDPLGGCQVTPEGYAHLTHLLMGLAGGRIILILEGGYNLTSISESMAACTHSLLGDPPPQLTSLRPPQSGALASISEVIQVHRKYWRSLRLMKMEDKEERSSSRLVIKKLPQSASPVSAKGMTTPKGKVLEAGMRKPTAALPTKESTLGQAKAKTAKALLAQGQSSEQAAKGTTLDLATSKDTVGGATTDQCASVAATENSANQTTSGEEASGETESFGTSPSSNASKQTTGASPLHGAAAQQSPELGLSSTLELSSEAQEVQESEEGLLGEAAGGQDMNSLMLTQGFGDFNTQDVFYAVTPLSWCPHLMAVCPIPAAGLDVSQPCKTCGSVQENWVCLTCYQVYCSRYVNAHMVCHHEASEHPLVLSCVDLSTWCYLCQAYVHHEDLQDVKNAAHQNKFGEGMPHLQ
Chain of HDAC6 (Homo sapiens (Human), UniProt Q9UBN7) (Q9UBN7 whole entry): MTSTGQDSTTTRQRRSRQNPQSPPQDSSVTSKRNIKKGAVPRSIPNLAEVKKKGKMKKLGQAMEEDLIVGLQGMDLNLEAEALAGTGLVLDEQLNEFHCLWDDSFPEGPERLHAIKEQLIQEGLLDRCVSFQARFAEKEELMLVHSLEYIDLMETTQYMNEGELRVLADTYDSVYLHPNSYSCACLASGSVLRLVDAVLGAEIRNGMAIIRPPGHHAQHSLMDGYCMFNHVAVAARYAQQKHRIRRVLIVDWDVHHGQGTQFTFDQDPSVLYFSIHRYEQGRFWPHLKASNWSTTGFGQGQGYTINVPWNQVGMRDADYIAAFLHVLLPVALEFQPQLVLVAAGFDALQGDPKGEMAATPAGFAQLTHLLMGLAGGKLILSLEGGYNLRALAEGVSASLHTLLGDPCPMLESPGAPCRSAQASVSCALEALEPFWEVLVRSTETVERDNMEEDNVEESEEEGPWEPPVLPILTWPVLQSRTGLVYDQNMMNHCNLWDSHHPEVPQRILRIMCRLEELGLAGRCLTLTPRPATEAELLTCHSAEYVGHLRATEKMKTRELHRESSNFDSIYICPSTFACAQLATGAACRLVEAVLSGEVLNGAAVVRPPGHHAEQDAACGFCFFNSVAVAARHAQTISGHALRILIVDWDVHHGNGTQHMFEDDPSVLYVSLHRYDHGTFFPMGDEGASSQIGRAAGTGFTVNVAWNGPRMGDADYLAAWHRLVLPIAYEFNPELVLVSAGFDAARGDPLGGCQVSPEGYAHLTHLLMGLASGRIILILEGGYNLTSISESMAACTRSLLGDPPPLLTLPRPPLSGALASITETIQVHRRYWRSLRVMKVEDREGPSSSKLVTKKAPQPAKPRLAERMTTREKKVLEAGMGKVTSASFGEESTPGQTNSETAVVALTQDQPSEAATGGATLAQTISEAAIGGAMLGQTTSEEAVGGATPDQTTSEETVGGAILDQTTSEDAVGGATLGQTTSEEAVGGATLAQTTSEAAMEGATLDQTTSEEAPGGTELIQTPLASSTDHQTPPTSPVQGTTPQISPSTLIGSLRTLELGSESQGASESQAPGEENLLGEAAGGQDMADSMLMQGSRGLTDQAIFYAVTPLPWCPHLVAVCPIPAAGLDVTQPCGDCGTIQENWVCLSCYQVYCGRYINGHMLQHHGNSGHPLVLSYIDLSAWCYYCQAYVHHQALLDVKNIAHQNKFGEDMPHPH

Consider `O=C(CCCCCCNC(=O)c1cnc(N(c2ccccc2)c2ccccc2)nc1)NO` [ACY-1215, ricolinostat], for which, in data set [1], the “Histone acetylation on H4K12” value was “significantly increased” and the “amount of cellular acetyl-α-Tubulin” value was “increased”.

For `CC(=O)Nc1ccc(C(=O)Nc2ccccc2N)cc1` [CI-994, tacedinaline], in data set [1], the “Histone acetylation on H3K9” value is reported as “significantly increased”, the “Histone acetylation on H4K12” value was “significantly increased” and the “amount of cellular acetyl-α-Tubulin” value was “did not increase”.

With `CN(Cc1ccc(C(=O)NO)cc1F)CC12CC3CC(CC(C3)C1)C2` [Example 1, 4-(((((3s)-Adamantan-1-yl)methyl)(methyl)amino)methyl)-3-fluoro-N-hydroxybenzamide], at HDAC6 [2] (competitor at 1 μM), the “binding of radiolabeled Example 2 to rat brain slices in presence of competitor” value was “significantly reduced”. For the same compound, the “effect of pretreatment on brain uptake of radiolabeled Example 2” value on HDAC6 [3] (1 mg/kg immediately prior to radiotracer) is “blocking of brain uptake”. In addition, the “effect on time activity curve of radiolabeled Example 2” value at HDAC6 [3] (1 mg/kg, 30-minutes post radiotracer administration) is reported as “clear deflection of the time activity curve”. For the same compound, the “Hepatocyte stability (half-life, min)” value in “Hepatocyte stability” is given as 20 (hu) min. Further, in data set [1], the “Histone acetylation on H3K9” value is given as “remained unaltered”, the “Histone acetylation on H4K12” value is given as “remained unaltered” and the “amount of cellular acetyl-α-Tubulin” value is “increased”. Moreover, the “Microsome stability (half-life, min)” value in “Microsome stability” stood at 19 min.

Regarding `CN(Cc1ccc(C(=O)NO)cc1[18F])CC12CC3CC(CC(C3)C1)C2` [Example 2, 4-((((Adamantan-1-yl)methyl)(methyl)amino)methyl)-3-[^18F]fluoro-N-hydroxybenzamide], the “brain uptake and retention” value on HDAC6 [3] (PET, radiotracer iv bolus) is “excellent”. In addition, on HDAC6 [3] (rat, in vivo), the “off-rate in preclinical PET” value is “slow”.

Consider `CC(CC12CC3CC(CC(C3)C1)C2)N(C)Cc1ccc(C(=O)NO)cc1` (centres unmarked) [Example 20], for which, on HDAC6 [4], the IC50 was determined as 290 nM.

Take `CN1CCc2c(c3ccccc3n2Cc2ccc(C(=O)NO)cc2)C1` [Tubastatin A]: the “binding of radiolabeled Example 2 to rat brain slices in presence of competitor” value on HDAC6 [2] (competitor at final concentration of 100 μM) is given as “reduce the amount of bound radioactivity to the same background as 10 μM Example 1”. Besides, in data set [1], the “Histone acetylation on H3K9” value is “remained unaltered”, the “Histone acetylation on H4K12” value was “remained unaltered” and the “amount of cellular acetyl-α-Tubulin” value was “increased”.
